According to article PMC9295786, “Discovery of potent BET bromodomain 1 stereoselective inhibitors using DNA-encoded chemical library selections” (Proceedings of the National Academy of Sciences of the …, 2022):
pEC50, pIC50, pKd: −log10 of the molar value. Values joined by “and” are separate entries in the source; they are usually repeats but may differ in a detail not shown here. Equal values may be shown once. Read-outs that look alike come from different tables or passages of the source.

Experiments:
[1] = Metabolic stability assay in liver microsomes (HLM); type: in vitro ADME; settings: human liver microsomes 0.5 mg protein/mL, compound 2.0 μM, NADPH 1.0 mM; read-out: HLM t1/2 (half-life)
[2] = Metabolic stability assay in liver microsomes (MLM); type: in vitro ADME; settings: mouse liver microsomes 0.5 mg protein/mL, compound 2.0 μM, NADPH 1.0 mM; read-out: MLM t1/2 (half-life)
[3] = target: T1, BRD4-BD1 (Homo sapiens, UniProt O60885); assay: AlphaScreen competition assay with biotinylated JQ1; type: binding; design: the bromodomain 1 (BD1) of BRD4; made in house; host or cells: bacteria (pET15b or pET28b vector); settings: for BRD4-BD1 vs. BRD4-BD2 fold (BRD4-BD1 selectivity): ratio of AlphaScreen IC50 values, NE = not efficient; for pIC50: read-out: BRD4-BD1 IC50
[4] = target: BRDT-BD1 (Homo sapiens, UniProt Q58F21); assay: as above; type: binding; design: the first bromodomain of BRDT (BRDT-BD1); made in house; host or cells: bacteria (pET15b or pET28b vector); settings: for BRDT-BD1 vs. BRDT-BD2 fold (BRDT-BD1 selectivity): ratio of AlphaScreen IC50 values, NE = not efficient
[5] = target: T2, BRDT-BD2 (Homo sapiens, UniProt Q58F21); assay: as above; type: binding
T2 construct: two similar tandem bromodomains (BD1 and BD2); made in house; host or cells: bacteria (pET15b or pET28b vector)

[6] = target: T3, BRD4-BD2 (Homo sapiens, UniProt O60885); assay: as above; type: binding; settings: read-out: BRD4-BD2 IC50
T3 construct: two similar tandem bromodomains (BD1 and BD2); made in house; host or cells: bacteria (pET15b or pET28b vector)

[7] = tested on: MOLM-13 cells; assay: Cell viability by CellTiterGlo; type: cell-based; settings: 72 h of treatment, CellTiterGlo, normalized to DMSO, read-out: Viability IC50 MOLM-13
[8] = tested on: THP1 cells; assay: Cell viability by CellTiterGlo; type: cell-based; settings: 72 h of treatment, CellTiterGlo, normalized to DMSO, read-out: Viability IC50 THP1
[9] = tested on: MV4;11 cells; assay: Cell viability by CellTiterGlo; type: cell-based; settings: for pIC50: 72 h of treatment, CellTiterGlo, normalized to DMSO, read-out: Viability IC50 MV4;11; for pEC50: Table S6, NE = not efficient, read-out: MV4-11 EC50 (viability)
[10] = tested on: Kasumi1 cells; assay: Cell viability by CellTiterGlo; type: cell-based; settings: 72 h of treatment, CellTiterGlo, normalized to DMSO, read-out: Viability IC50 Kasumi1
[11] = tested on: MYC expression in MV4;11 cells; assay: MYC expression by RT-qPCR; type: cell-based; settings: 8 h of treatment
[12] = tested on: MYC expression in MOLM-13 cells; assay: MYC expression by RT-qPCR; type: cell-based; settings: 8 h of treatment
[13] = tested on: MV4;11 cells; assay: Apoptosis detection (Annexin V) by flow cytometry; type: cell-based; settings: 72 h of treatment
[14] = tested on: MOLM-13 cells; assay: Apoptosis detection (Annexin V) by flow cytometry; type: cell-based; settings: 72 h of treatment
[15] = tested on: MV4;11 cells; assay: Cell cycle analysis by flow cytometry; type: cell-based; settings: 24 h of treatment at the IC50
[16] = target: TAF1-BD2; settings: BROMOscan profile; cited from earlier work
[17] = target: TAF1L-BD2; settings: BROMOscan profile; cited from earlier work
[18] = target: T1, BRD4-BD1; design: the bromodomain 1 (BD1) of BRD4; purchased Eurofins DiscoverX (Fremont, CA); host or cells: E. coli host derived from the BL21 strain, T7 phage; settings: BROMOscan assays; cited from earlier work
[19] = target: T1, BRD4-BD1; design: the bromodomain 1 (BD1) of BRD4; purchased Eurofins DiscoverX (Fremont, CA); host or cells: E. coli host derived from the BL21 strain, T7 phage; settings: read-out: IC50 BRD4-BD1 AlphaScreen; cited from earlier work
[20] = target: T4, BRD2-BD1 (Homo sapiens, UniProt P25440); settings: cited from earlier work
T4 construct: two similar tandem bromodomains (BD1 and BD2); purchased Eurofins DiscoverX (Fremont, CA); host or cells: E. coli host derived from the BL21 strain, T7 phage
T4 sequence (P25440 74-180 limits assumed): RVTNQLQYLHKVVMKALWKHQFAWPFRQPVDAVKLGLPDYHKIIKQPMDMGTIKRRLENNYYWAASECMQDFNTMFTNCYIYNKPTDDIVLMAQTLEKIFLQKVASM

[21] = tested on: BD2; design: method as in PMID 24391744; settings: cited from earlier work
[22] = AlphaScreen, biotinylated JQ1 10 nM, His-bromodomain 10 nM
[23] = AlphaScreen, biotinylated JQ1 10 nM, His-bromodomain 10 nM, NE = not efficient, read-out: BRDT-BD2 IC50
[24] = AlphaScreen, biotinylated JQ1 10 nM, His-bromodomain 10 nM, NE = not efficient

| SMILES | BRD4-BD1 vs. BRD4-BD2 fold (BRD4-BD1 selectivity) [3] | pIC50 [3] | pIC50 [4] | BRDT-BD1 vs. BRDT-BD2 fold (BRDT-BD1 selectivity) [4] | pIC50 ([5]; read-out: BRDT-BD2 IC50) | pIC50 [6] | further results |
| --- | --- | --- | --- | --- | --- | --- | --- |
| Cc1nnc2n1-c1ccc(Cl)cc1C(c1ccccc1)=NC2 [Alprazolam, reference compound] | – | – | – | – | – | – | half-life at 2 μM [1]: 14.4 h; half-life at 2 μM [2]: 5.03 h |
| CNC(=O)C(CC1CCN(C(=O)Cc2ccc3[nH]c(=O)cc(C)c3c2)CC1)NC(=O)c1ccc(-c2ccc(C)cc2C)cn1 (centres unmarked) [CDD-724] | 4035 fold | 8.07 | 8.24 | 2,246 fold and > 2,000 fold | 4.89 | 4.46 | – |
| Cc1cc(=O)[nH]c2ccc(CC(=O)N3CCC(CCNC(=O)c4ccccn4)CC3)cc12 [CDD-767] | 5,449 fold | 7.86 | 7.45 | 192 fold | 5.17 | 4.12 | – |
| Cc1cc(=O)[nH]c2ccc(CC(=O)N3CCN(CCNC(=O)c4ccccn4)CC3)cc12 [CDD-778] | – | – | – | 13.8 fold | – | – | pIC50 [3, 22]: 5.89; pIC50 [4, 22]: 5.28; pIC50 [5, 23]: 4.14 |
| Cc1cc(=O)[nH]c2ccc(CC(=O)N3CCC(CCNC(=O)c4ccccc4)CC3)cc12 [CDD-779] | – | 7.32 | 6.83 | 70 fold | 4.98 | – | – |
| CNC(=O)C(CC1CCN(C(=O)Cc2ccc3[nH]c(=O)cc(C)c3c2)CC1)NC(=O)c1ccccn1 (centres unmarked) [CDD-784] | 2,078 fold | – | – | 960 fold | – | – | pIC50 [3, 22]: 7.80; pIC50 [4, 22]: 7.69; pIC50 [5, 23]: 4.71; pIC50 [6, 24]: 4.49 |
| CNC(=O)[C@H](CC1CCN(C(=O)Cc2ccc3[nH]c(=O)cc(C)c3c2)CC1)NC(=O)c1ccc(-c2ccc(C)cc2C)cn1 [CDD-786] | 275 fold | 7.65 | 7.02 | 65 fold | 5.20 | 5.21 | pIC50 ([7]; Homo sapiens, MOLM-13): 6.14; pIC50 ([8]; Homo sapiens, THP-1): 5.92; pIC50 ([9]; Homo sapiens, MV4-11): 6.07; pIC50 ([10]; Homo sapiens, Kasumi 1): 6.58 |
| Cc1ccc(-c2ccc(C(=O)NCCC3CCN(C(=O)Cc4ccc5[nH]c(=O)cc(C)c5c4)CC3)nc2)c(C)c1 [CDD-813] | 312 fold | 7.56 | 7.47 | 2012 fold | 4.17 | 5.06 | – |
| Cc1cc(=O)[nH]c2ccc(CC(=O)N3CCC(CCNC(=O)c4nccc5ccccc45)CC3)cc12 [CDD-853] | – | 6.47 | 6.20 | – | – | – | – |
| Cc1cc(=O)[nH]c2ccc(CC(=O)N3CCC(CCNC(=O)c4cc5ccccc5cn4)CC3)cc12 [CDD-854] | – | – | – | – | – | – | pIC50 [3, 22]: 6.92; pIC50 [4, 22]: 6.94 |
| Cc1cc(=O)[nH]c2ccc(CC(=O)N3CCC(CCNC(=O)c4ccc5ccccc5n4)CC3)cc12 [CDD-855] | – | – | – | – | – | – | pIC50 [3, 22]: 6.91; pIC50 [4, 22]: 7.09 |
| Cc1ccc(-c2ccc(C(=O)NC(C)CC3CCN(C(=O)Cc4ccc5[nH]c(=O)cc(C)c5c4)CC3)nc2)c(C)c1 (centres unmarked) [CDD-906] | 381 fold | – | – | 756 fold | – | – | pIC50 [3, 22]: 7.28; fold loss of selectivity on BRDT-BD1 ([4]; AlphaScreen): 6.5 fold; pIC50 [4, 22]: 7.51; pIC50 [5, 23]: 4.63; pIC50 [6, 24]: 4.70 |
| CNC(=O)[C@@H](CC1CCN(C(=O)Cc2ccc3[nH]c(=O)cc(C)c3c2)CC1)NC(=O)c1ccc(-c2ccccc2)cn1 [CDD-956] | – | – | – | – | – | – | MYC expression, MV4;11 [11]: suppressed; MYC expression, MOLM-13 [12]: suppressed; Induction of apoptosis (Annexin V+ cells), MV4;11 [13]: apoptosis; Induction of apoptosis (Annexin V+ cells), MOLM-13 [14]: apoptosis; half-life at 2 μM [2]: 0.583 h; Effect on the cell cycle, MV4;11 [15]: G1 arrest |
| CNC(=O)[C@@H](CC1CCN(C(=O)Cc2ccc3[nH]c(=O)cc(C)c3c2)CC1)NC(=O)c1ccc(-c2ccc(Cl)cc2)cn1 [CDD-981] | 1,553 fold | 7.89 | 8.29 | 6,633 fold | 4.47 | 4.70 | pEC50 ([9]; Homo sapiens, MV4-11): 7.24 |
| CNC(=O)[C@@H](CC1CCN(C(=O)Cc2ccc3[nH]c(=O)cc(C)c3c2)CC1)NC(=O)c1ccc(-c2ccc(Cl)c(F)c2)cn1 [CDD-982] | 1,423 fold | 8.01 | 8.33 | 4,799 fold | 4.65 | 4.86 | pEC50 ([9]; Homo sapiens, MV4-11): 7.00 |
| CNC(=O)C(CC1CCN(C(=O)Cc2ccc3[nH]c(=O)ccc3c2)CC1)NC(=O)c1ccc(-c2ccccc2)cn1 (centres unmarked) [CDD-986] | 2,352 fold | – | – | 3,875 fold | – | – | fold loss of selectivity over BRD4-BD2 ([3]; AlphaScreen): 1.6 fold; pEC50 [9]: 6.84; pIC50 [5, 23]: 4.68; pIC50 [6, 24]: 4.78 |
| Cc1cc2c(-c3ccco3)cnc(N[C@@H]3CCN(C)C[C@H]3C(=O)NC3CCCCC3)c2[nH]c1=O [GSK789] | – | – | – | – | – | – | pKd [16]: 7.30; pKd [17]: 6.40 |
| Cc1sc2c(c1C)C(c1ccc(Cl)cc1)=N[C@@H](CC(=O)OC(C)(C)C)c1nnc(C)n1-2 [JQ1, reference compound] | – | – | – | – | – | – | pIC50 [7]: 6.89; pIC50 [8]: 6.88; pIC50 [9]: 7.21; pIC50 [10]: 7.53 |
| COc1ccccc1S(=O)(=O)Nc1ccc2c3c(cc(-n4cnc(C)c4)nc13)C(=O)N2C [LT052] | – | – | – | – | – | – | selectivity for BRD4-BD1 over BRD4-BD2 [18]: 138 fold; pIC50 [19]: 7.06; pIC50 [20]: 5.05 |
| COc1cc(OC)c2c(=O)[nH]c(-c3cc(C)c(OCCO)c(C)c3)nc2c1 [RVX-208] | – | – | – | – | – | – | selectivity over BD1 domains ([21]; BD2 over BD1): ~10 fold; BD2 potency [21]: > 100 nM; pIC50 ([5]; AlphaScreen, read-out: IC50 in our BRDT-BD2 AlphaScreen assay): 5.70 |
